Legend:
[1] = tested on: stable CUDR transfectant of A431 cells; test: Response of stable CUDR transfectants of A431 cells to DOX and Taxol by MTT assay; format: cell-based, human; conditions: CUDR transfectants versus A431 cells transfected with empty vector; drug for 5 days; FIGS. 5A and 5C
Protocol: (§1) A431 cells were transfected with a vector carrying the full-length CUDR cDNA or an empty vector. After transfection, the cells were selected with G418 and individual colony was picked for establishment as stable transfectants. The stable transfectants were maintained in culture supplemented with G418. The response of cells to drugs was measured by both MTT assay and DNA fragmentation assay.
For the MTT assay, the cells were seeded in a 96-well plate for 2 days and incubated with various concentrations of DOX or Taxol for 5 days. At the end of the incubation, the cells were incubated with 50 μl of a 0.1 mg/ml solution of 3-[4,5-dimethylthiaol-2-yl]-2,5-diphenyltetrazolium bromide (MTT) at 37° C. for 3 h and lysed in 150 μl of dimethyl sulfoxide at room temperature for 30 min. The absorbance of each well was measured at 580 nm in a microplate reader. The percentage of cell survival was calculated as the ratio between cells with drug treatment and cells without drug treatment. The MTT results for DOX and Taxol were shown in FIGS. 5A and 5C respectively. ◯: control cells, i.e. A431 cells transfected with empty vector; ▴: stable CUDR transfectant of A431 cells. Error bar: standard deviation.

[2] = tested on: A431 parent cells, A5A and A10A cells; test: Response of A431 sublines to doxorubicin by MTT assay; format: cell-based, human; conditions: A431/A5A and A10A cells versus A431 parent cells; incubated with drug for 5 days; FIG. 1
Protocol: Responses of A431 parent cells, A5A and A10A cells to doxorubicin (DOX) were compared in this Example.
A431/A5A cells were A431 cells survived from treatment with 5 μg/ml of DOX, and A10A cells were derived from A5A cells survived from treatment with 10 μg/ml of DOX.
Cells were seeded in 96-well plates for 2 days and incubated with various concentrations of DOX for 5 days. At the end of the incubation, the cells were incubated in 50 μl of a 0.1 mg/ml solution of 3-[4,5-dimethylthiaol-2-yl]-2,5-diphenyltetrazolium bromide (MTT) at 37° C. for 3 h and lysed in 150 μl of dimethyl sulfoxide at room temperature for 30 min. The absorbance of each well was measured at 580 nm in a microplate reader. The survival percentage of cells was calculated as the ratio between cells with drug treatment and cells without drug treatment.

[3] = tested on: stable CUDR transfectant of A431 cells; test: DNA fragmentation assay (apoptotic response) in stable CUDR transfectants of A431 cells; format: cell-based, human; conditions: CUDR transfectants versus A431 cells transfected with empty vector; drug for 3 days; FIGS. 5B and 5D
Protocol: as §1
DNA fragmentation assay, one of the common methods, was conducted to assess the apoptotic response of cells upon treatment with anticancer drug. The cells were seeded in 60 mm Petri dish for 2 days and then exposed to various concentrations of DOX or Taxol for 3 days. After incubation, the cells were lysed in lysis buffer containing Tris-HCl, SDS, EDTA and protease K and incubated at 45° C. for 2 h. After phenol/chloroform extraction, DNA was precipitated with sodium acetate and 100% ethanol. After overnight digestion with RNase A at 37° C., 40 μg of the DNA sample were separated on 1.5% EtBr staining agarose gel. The DNA fragmentation pattern was viewed with UV light box. The presence of the “DNA laddering” pattern indicates the induction of apoptosis in cells; the more extensive the laddering pattern, the more significant the apoptosis induction. AN: control cells, A431 cells transfected with an empty vector; AG: stable CUDR transfectant of A431 cells; and M: 100 bp marker.

[4] = tested on: Human squamous carcinoma A431 cells; test: Doxorubicin sensitivity of A431 cells after transfection with full-length CUDR or CUDR antisense oligonucleotides (MTT assay); format: cell-based; conditions: plasmid 24 h or oligonucleotides 4 h, then DOX for 48 h
Protocol: The role of CUDR in sensitivity of cells to doxorubicin was examined. Human squamous carcinoma A431 cells were transfected with either plasmid carrying the full-length CUDR cDNA or antisense oligonucleotides of CUDR. The cells were seeded in a 96-well plate for 4 h before incubation with full-length CUDR plasmid DNA for 24 h or CUDR oligonucleotides for 4 h. After transfection, the cells were incubated with DOX for 48 h. The cell survival was measured by MTT assay. Furthermore, the CUDR mRNA level after transfection was examined by Northern blot analysis.
In FIG. 4A, ---o--- (C): cells without transfection; -▪- (CUDR): cells transfected with full length CUDR. In FIG. 4B, ---o--- (C): Cells without transfection treatment; -●- (S): transfection with sense CUDR oligonucleotides; -▪- (AS): transfection with CUDR antisense oligonucleotides.
Antisense sequence for CUDR was: 5′-[…]-3′ (nt1347-1367) (SEQ ID NO:9) and the sequence for the sense oligonucleotides was complementary to that of the antisense.

Compound | response of cells to drug (percentage of cell survival) [1] | response of cells to drug (survival percentage of cells) [2] | apoptotic response of cells upon drug treatment (DNA laddering) [3] | effect of transfection on doxorubicin sensitivity of cells (cell survival) ([4]; FIG. 4) | effect of transfection on doxorubicin sensitivity of cells (cell survival) ([4]; FIG. 4, listed as antisense CUDR nucleic acids)
COc1cccc2c1C(=O)c1c(O)c3c(c(O)c1C2=O)C[C@@](O)(C(=O)CO)C[C@@H]3O[C@H]1C[C@H](N)[C@H](O)[C@H](C)O1 [DOX, doxorubicin] | more resistant | more resistant | more refractory to the apoptosis | – | –
CC(=O)O[C@H]1C(=O)[C@@]2(C)[C@H]([C@H](OC(=O)c3ccccc3)[C@]3(O)C[C@H](OC(=O)[C@H](O)[C@@H](NC(=O)c4ccccc4)c4ccccc4)C(C)=C1C3(C)C)[C@]1(OC(C)=O)CO[C@@H]1C[C@@H]2O [Taxol] | more resistant | – | more refractory to the apoptosis | – | –
antisense CUDR oligonucleotides: Antisense sequence for CUDR: 5′-CAAGGTGCCAGTTAGCGTAT-3′ (nt1347-1367) (SEQ ID NO:9) (listed as DNA, chemistry not given here) | – | – | – | increased the DOX sensitivity of cells | increase the drug sensitivity of cancer cells
